In US20140140951A1, “D-Alanine Ester of Rp-Nucleoside Analog” (priority 2012, published 2014):

Columns and labels:
[1] = tested on: HCV genotype 1b replicon; assay: HCV replicon assay (luciferase reporter); type: cell-based; conditions: Hepatitis C virus; Zluc (Huh-7-derived) cells, 72 hours
Description: Huh-7-derived cell line (Zluc) that harbors an HCV genotype 1b replicon and a luciferase reporter gene was grown in Dulbecco's Modified Eagle Medium (DMEM) supplemented with 10% fetal bovine serum, 2 mM GlutaMAX, 1% MEM nonessential amino acids, 100 IU/mL penicillin, 100 μg/mL streptomycin, and 0.5 mg/mL Geneticin® (G418). For dose response testing the cells were seeded in 96-well plates at 7.5×10^3 cells per well in a volume of 50 μL, and incubated at 37° C./5% CO2. Drug solutions were made up freshly in Huh-7 media as 2× stocks. […] were prepared from these stocks in DMEM without G418. At least three hours after Zluc cells were seeded, drug treatment was initiated by adding 50 μL of drug dilutions to the plates in duplicate. Final concentrations of drug ranged from 100 μM to 0.0000512 μM. Cells were then incubated at 37° C./5% CO2. […] For this, media was removed from the plates via gentle tapping. Fifty microliters of ONE-glo luciferase assay reagent was added to each well. The plates were shaken gently for 3 min at room temperature and luminescence was measured on a Victor^3 V 1420 multilabel counter (Perkin Elmer) with a 1 second read time using a 700 nm cut-off filter. The EC50 values were calculated from dose response curves from the resulting best-fit equations determined by Microsoft Excel and XLfit 5.2 software. […]

[2] = Cytotoxicity evaluation (CellTiter-Blue cell viability); type: cell-based; conditions: human, Zluc cells (HCV replicon cells)
Description: For cytotoxicity evaluation, Zluc cells were treated with compound as described herein, and cell viability was monitored using the CellTiter-Blue Cell Viability Assay (Promega) by adding 20 μL of the assay solution to each well. The plates were then incubated at 37° C./5% CO2 for at least 3 hours. Fluorescence was detected in plates using excitation and emission wavelengths of 531 and 595 nm, respectively, in a Victor^3 V 1420 multilabel counter (Perkin Elmer) and CC50 values were determined using Microsoft Excel and XLfit 5.2 software.

[3] = Stability in liver microsomes; type: in vitro ADME, human; conditions: 10 μM, 1.0 mg/mL protein, NADPH, 60 min
Description: (§1) Stability of test compounds was determined in subcellular fractions (microsomes and S9) of human liver and intestine in duplicate for each matrix. Pooled liver and intestinal microsomal, intestinal and liver S9 proteins (1.0 mg/mL), suspended in incubation buffer (100 mM potassium phosphate, pH 7.4, 5 mM MgCl2, and 0.1 mM EDTA), were preincubated for 5 min at 37° C. with 10 μM of a test compound from a 10 mM stock solution in DMSO (final DMSO concentration was 0.1%); the reaction was initiated by the addition of NADPH (3 mM final concentration). At specific times (0 and 60 min), 0.1 mL samples were taken and the reaction terminated by the addition of 4 volumes of stop solution (acetonitrile with 500 ng/mL carbutamide as an internal standard). The samples were vortexed for 30 sec and then centrifuged at 16,000 g for 10 min. Aliquots of supernatants (100 μL each) were transferred to 96 deep-well plates preloaded with 100 μL distilled water and analyzed after mixing by LC-MS/MS. The MS peak area ratio of the test compound versus the internal standard was calculated and percent unchanged test compound over 60 minutes was calculated using this ratio.

[4] = Stability in intestinal microsomes; type: in vitro ADME, human; conditions: 10 μM, 1.0 mg/mL protein, NADPH, 60 min
Description: as §1

[5] = Liver pharmacokinetics (triphosphate) following a single oral dose in CD-1 mice; type: in vivo; conditions: single oral dose 10 mg/kg for I or 25 mg/kg for II in PEG 200, CD-1 male mice
Description: Liver samples were analyzed for the active species 2′-methyl-2′-fluorouridine triphosphate (2′-Me-2′-F—U TP) by LC-MS/MS. […] Internal standard solution was added to the homogenate followed by neutralization with 20% ammonium hydroxide solution and addition of 500 μL 1% formic acid. The tissue samples were extracted by weak anion exchange solid phase extraction (SPE). Post extraction, the eluates were evaporated under nitrogen, followed by reconstitution before injection onto the LC-MS/MS system. […] The calibration range was 10 to 10000 pmol/mL in mouse liver homogenate (50 to 50000 pmol/g of mouse liver).

For CC(C)OC(=O)[C@@H](C)N[P@@](=O)(OC[C@H]1O[C@@H](n2ccc(=O)[nH]c2=O)[C@](C)(F)[C@@H]1O)Oc1ccccc1 [Compound (Ia), D-Alanine, N—((RP,2′R)-2′-deoxy-2′-fluoro-2′-methyl-P-phenyl-5′-uridylyl)-, 1-methylethyl ester], the EC50 [1] was > 10 µM, the CC50 at 72 h [2] was > 50 µM and the “Stability (percent remaining) HLM (1 hr)” value [3] was “++++ (60% < ++++ ≦ 80%)”. The “Stability (percent remaining) HIM (1 hr)” value [4] was “+++++ (80% < +++++)” and the “Ms Liver 2′-Me-2′-F-U TP AUC (pmol · hr/g at 1 μmol/kg)” value [5] was “+++++ (1600 < +++++)”.
For CC(C)OC(=O)[C@@H](C)N[P@](=O)(OC[C@H]1O[C@@H](n2ccc(=O)[nH]c2=O)[C@](C)(F)[C@@H]1O)Oc1ccccc1 [Compound (Ib)], the EC50 [1] was > 10 µM, the CC50 at 72 h [2] was > 50 µM and the “Stability (percent remaining) HLM (1 hr)” value [3] was “+++++ (80% < +++++)”. The “Stability (percent remaining) HIM (1 hr)” value [4] was “+++++ (80% < +++++)” and the “Ms Liver 2′-Me-2′-F-U TP AUC (pmol · hr/g at 1 μmol/kg)” value [5] was “+++ (400 < +++ ≦ 1000)”.
